Assay [1] has as its system H2 receptor. Nature of the assay: H2 receptor blocking activity, isolated bullfrog gastric mucosa, histamine-stimulated acid secretion. The format is cell-based, bullfrog (Rana catesbeiana). To be noted: inhibition of acid secretion stimulated by 10^-5 M histamine; antagonist in serosal chamber; read-out: ED50 (the source's name). How it is done:
A second assay for H2 receptor blocking activity employs the isolated bullfrog gastric mucosa--see Warrick and Lin, Communications in Chem. Pathology and Pharmacology, 13, 149 (1976). The assay is carried out as follows: The gastric mucosa of the bullfrog (Rana catesbeiana) is separated from the musculature of the stomach and placed between a pair of Ussing chambers made of lucite. The chambers are filled with frog Ringer solution and acid secretion is stimulated by addition of histamine to the serosal side of the mucosa at a final concentration of 10^-5 M. Acid output is automatically titrated to pH 4.5. After steady response to 10^-5 M of histamine is established, the antagonist (a compound of this invention) is added to the serosal chamber and the maximal inhibition by each concentration of the H2 -antagonist is recorded. From the dose-response curve, the ED50 of the drug is calculated.
In Table 2, column 1 gives the substituent at 6 in the pyrimidone ring, column 2 the "B" group (see formula at the head of the Table), and column 3 the molar ED50.

The target of assay [2] is T1, H2 receptor (Rattus norvegicus, UniProt P25102).
T1 construct: uterine horns removed therefrom and suspended at ambient temperature in isolated organ baths; from tissue; host or cells: isolated uterine horn strips of estrone-treated female albino rats
T1 sequence (P25102 whole entry): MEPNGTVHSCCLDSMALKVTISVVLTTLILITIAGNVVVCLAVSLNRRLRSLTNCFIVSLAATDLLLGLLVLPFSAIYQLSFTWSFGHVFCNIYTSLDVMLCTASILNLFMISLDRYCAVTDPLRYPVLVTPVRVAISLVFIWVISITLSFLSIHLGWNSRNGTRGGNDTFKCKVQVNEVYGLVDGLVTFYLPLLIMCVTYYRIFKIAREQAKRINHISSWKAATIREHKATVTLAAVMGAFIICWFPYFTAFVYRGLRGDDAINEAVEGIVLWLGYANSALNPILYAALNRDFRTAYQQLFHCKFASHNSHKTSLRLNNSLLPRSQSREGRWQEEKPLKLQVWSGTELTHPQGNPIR
Put plainly: H2 receptor blocking activity, histamine-induced relaxation of isolated rat uterine strips. In kind it is cell-based, rat (female albino rats). To be noted: antagonist 10^-5 molar, 30 minutes, dissociation constant from dose ratio of histamine ED50; read-out: -logKb (converted). How it is done:
The following assay for H2 receptor blocking activity was employed. Female albino rats are treated with estrone 24 hours prior to the initiation of the experiment. The rats are sacrificed and the uterine horns removed therefrom and suspended at ambient temperature in isolated organ baths containing De Jalon's solution. After equilibration, the uterine strips are exposed to 50 millimole aqueous potassium chloride, which produces a sustained contraction. When the uterus is so contracted, histamine produces a dosedependent H2 receptor-mediated relaxation. A control dose-response curve to histamine is constructed on each tissue. Following thorough washout of the histamine after obtaining the control dose-response curve, each antagonist (a compound of this invention) is added for 30 minutes at a concentration of 10^-5 molar. The uterine strips are then contracted with aqueous potassium chloride in the presence of the antagonist and a second dose-response curve to histamine obtained. In the presence of a competitive antagonist, the dose-response curve to histamine is shifted in parallel to the right with no depression of the maximum relative to the control curve. The dose ratio (DR) is calculated for each concentration of antagonist by dividing the ED50 of histamine in the presence of the competitive antagonist by the control ED50 for histamine. The dissociation constant (KB) of the antagonist is calculated from the dose-ratios by the following equation: […]
Cimetidine is included as an internal standard.
In the table, column 1 gives the name of the compound under test and column 2, the -logKb value for that compound.

The test system of assay [3] is acid secretion. Put plainly: in vivo antisecretory assay, gastric fistula dogs, histamine-stimulated gastric secretion. The following applies: for recovery of acid secretions from an effective dose: after 3-4 hours; for antisecretory potency relative to cimetidine, iv route: iv infusion over 30 minute period, histamine iv infusion. How it is done:
An in vivo assay for the antisecretory action of drugs on acid secretion utilizes gastric fistula dogs with a vagally innervated gastric fistula and vagally denervated Heidenthain pouch. A steady-state gastric secretion is produced by the iv infusion of histamine. The antisecretory drugs under test are given either intravenously by infusion over a 30 minute period or orally 75 min. prior to collection of gastric secretion from the fistula. In this assay, 2-[2-(2-dimethylaminomethyl-4-thiazolylmethylthio)ethyl]amino-5-(3-pyridyl)methyl-4-pyrimidone was 11X cimetidine by the iv route and 14X cimetidine orally. The 6-methyl-2-pyridyl analog was 14.4X cimetidine intravenously.

Assay [4] has as its system H2-receptor. To be noted: cited from earlier work; for H2-receptor antagonist activity in words: prior art.

Consider `Cc1cc(Cc2cnc(NCCSCc3csc(CN(C)C)n3)[nH]c2=O)cnc1C` [Example 5, 2-[2-(2-dimethylaminomethyl-4-thiazolylmethylthio)ethyl]amino-5-(5,6-dimethyl-3-pyridyl)methyl-4-pyrimidone], for which, in assay [1], the IC50 was 2350 nM. Moreover, the Kd in assay [2] is 3.89 nM. As to `Cc1nc(NCCSCc2csc(CN(C)C)n2)[nH]c(=O)c1Cc1cccnc1` [Example 8, 2-[2-(2-dimethylaminomethyl-4-thiazolylmethylthio)ethyl]amino-5-(3-pyridyl)methyl-6-methyl-4-pyrimidone], in assay [1], the IC50 turned out to be 2000 nM. On to `CN(C)Cc1nc(CSCCNc2nc(=O)c(Cc3ccc4c(c3)OCO4)c[nH]2)cs1` [Example 2, 2-[2-(2-dimethylaminomethyl-4-thiazolylmethylthio)ethyl]amino-5-[5-(1,3-benzodioxoly)]methyl-4-pyrimidone], for which the IC50 in assay [1] was 11100 nM. In addition, the Kd in assay [2] was 4.37 nM. For the molecule `CN(C)Cc1nc(CSCCNc2ncc(Cc3ccnc(O)c3)c(=O)[nH]2)cs1` [Example 9, 2-[2-(2-dimethylaminomethyl-4-thiazolylmethylthio)ethyl]amino-5-(2-hydroxy-4-pyridyl)methyl-4-pyrimidone], the IC50 in assay [1] is 603 nM.

Consider `CN(C)Cc1nc(CSCCNc2ncc(Cc3cccnc3)c(=O)[nH]2)cs1` [Example 1, 2-[2-(2-dimethylaminomethyl-4-thiazolylmethylthio)ethyl]amino-5-(3-pyridyl)methyl-4-pyrimidone], for which the IC50 in assay [1] was 115 nM. The Kd in assay [2] is 1.1 nM. Further, in assay [3], the “recovery of acid secretions from an effective dose” value is “about 25%” and the “antisecretory potency relative to cimetidine, iv route” value was 11 X cimetidine. For the same molecule, in assay [3] (orally 75 min. prior to collection of gastric secretion), the “antisecretory potency relative to cimetidine, orally” value was found to be 14 X cimetidine. With `CN(C)Cc1nc(CSCCNc2ncc(Cc3ccccn3)c(=O)[nH]2)cs1` [Example 10, 2-[2-(2-dimethylaminomethyl-4-thiazolylmethylthio)ethyl]amino-5-(2-pyridyl)methyl-4-pyrimidone], the IC50 in assay [1] is 163 nM. In addition, the Kd in assay [2] is 17.4 nM.

Consider `COc1cc(Cc2cnc(NCCSCc3csc(CN(C)C)n3)[nH]c2=O)ccn1` [Example 7, 2-[2-(2-dimethylaminomethyl-4-thiazolylmethylthio)ethyl]amino-5-(2-methoxy-4-pyridyl)methyl-4-pyrimidone], for which, in assay [1], the IC50 came out at 3000 nM. Turning to `CNC(=NCCSCc1nc[nH]c1C)NC#N` [cimetidine, N-cyano-N'-methyl-N"-[2-([(5-methyl-1H-imidazol-4-yl)methyl]thio)ethyl]guanidine, reference compound], in assay [3], the “recovery of acid secretions from an effective dose” value is reported as ~50%. With `CN(C)Cc1nc(CSCCNc2ncc(Cc3ccc(O)nc3)c(=O)[nH]2)cs1` [Example 6, 2-[2-(2-dimethylaminomethyl-4-thiazolylmethylthio)ethyl]amino-5-(6-hydroxy-3-pyridyl)methyl-4-pyrimidone], the IC50 in assay [1] was determined as 252 nM. In the case of `CNC(=S)NCCCCc1cnc[nH]1` [burimamide], the “H2-receptor antagonist activity in words” value in assay [4] is on record as “powerful H2 -receptor antagonist”. In the case of `C#CCNC(=C[N+](=O)[O-])NCCSCc1ccc(CN(C)C)o1` [1-nitro-2-(2-propynylamino)-2-(2-[(5-dimethylaminomethyl-2-furyl)methylthio]ethylamino)ethylene], the “activity relative to cimetidine in a standard H2-receptor assay” value in assay [4] (U.S. Pat. No. 4,203,909) is given as 7.45 times the activity of cimetidine.

As to `Cc1cccc(Cc2c[nH]c(NCCSCc3csc(CN(C)C)n3)nc2=O)n1` [6-methyl-2-pyridyl analog], in assay [3], the “antisecretory potency relative to cimetidine, iv route” value was 14.4 X cimetidine. `COc1ccc(Cc2cnc(NCCSCc3csc(CN(C)C)n3)[nH]c2=O)cn1` [Example 4, 2-[2-(2-dimethylaminomethyl-4-thiazolylmethylthio)ethyl]amino-5-(6-methoxy-3-pyridyl)methyl-4-pyrimidone]: the IC50 in assay [1] amounted to 12600 nM. Besides, the Kd in assay [2] was 60.3 nM. With `CN(C)Cc1nc(CSCCNc2ncc(Cc3ccncc3)c(=O)[nH]2)cs1` [Example 11, 2-[2-(2-dimethylaminomethyl-4-thiazolylmethylthio)ethyl]amino-5-(4-pyridyl)methyl-4-pyrimidone], the IC50 in assay [1] is 196 nM. In assay [2], the Kd was 12.9 nM. For `Cc1ccc(Cc2cnc(NCCSCc3csc(CN(C)C)n3)[nH]c2=O)cn1` [Example 3, 2-[2-(2-dimethylaminomethyl-4-thiazolylmethylthio)ethyl]amino-5-(6-methyl-3-pyridyl)methyl-4-pyrimidone], in that order: 1350 nM and 11.2 nM. `CNC(=NC#N)NCCSCc1csc(NC(=N)N)n1` [2-guanidino-4-[2-(2-cyano-3-methylguanidino)ethylthiomethyl]thiazole]: in assay [4], the “H2-receptor antagonist activity in words” value was “greatly increased activity over cimetidine”.

The values above are taken from patent US4468399A, “2-[2-(2-Aminoalkyl-4-thiazolylmethylthio)alkyl]-amino-5-substituted-4-pyr imidones” (Eli Lilly and Company, priority 1983, dated 1984).
